Laboratory results as given in publication PMC3969223, “Characterization of WZ4003 and HTH-01-015 as selective inhibitors of the LKB1-tumour-suppressor-activated NUAK kinases” (Biochemical Journal, 2013).

Columns and labels:
Assay in all cases: Kinase profiling
Format in all cases: biochemical
Conditions in all cases: 0.1 or 1 μM inhibitor; mean of triplicate
[1] = target: CLK2 (Homo sapiens, UniProt P49760)
How it was run: (§1)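 In this specificity profiling, inhibitors at 0.1 or 1 μM were run against 140 protein kinases in vitro. Activity is reported relative to DMSO-treated controls as mean ±S.D. of three reactions.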

[2] = target: DYRK2 (Homo sapiens, UniProt Q92630)
How it was run: as §1

[3] = target: IKKβ (Homo sapiens, UniProt O14920)
How it was run: as §1

[4] = target: MELK (Homo sapiens, UniProt Q14680)
How it was run: as §1

[5] = target: MLK3 (Homo sapiens, UniProt Q16584)
How it was run: as §1

[6] = target: SRPK1 (Homo sapiens, UniProt Q96SB4)
How it was run: as §1

[7] = target: SYK (Homo sapiens, UniProt P43405)
How it was run: as §1

MLK3, sequence (Q16584 whole entry): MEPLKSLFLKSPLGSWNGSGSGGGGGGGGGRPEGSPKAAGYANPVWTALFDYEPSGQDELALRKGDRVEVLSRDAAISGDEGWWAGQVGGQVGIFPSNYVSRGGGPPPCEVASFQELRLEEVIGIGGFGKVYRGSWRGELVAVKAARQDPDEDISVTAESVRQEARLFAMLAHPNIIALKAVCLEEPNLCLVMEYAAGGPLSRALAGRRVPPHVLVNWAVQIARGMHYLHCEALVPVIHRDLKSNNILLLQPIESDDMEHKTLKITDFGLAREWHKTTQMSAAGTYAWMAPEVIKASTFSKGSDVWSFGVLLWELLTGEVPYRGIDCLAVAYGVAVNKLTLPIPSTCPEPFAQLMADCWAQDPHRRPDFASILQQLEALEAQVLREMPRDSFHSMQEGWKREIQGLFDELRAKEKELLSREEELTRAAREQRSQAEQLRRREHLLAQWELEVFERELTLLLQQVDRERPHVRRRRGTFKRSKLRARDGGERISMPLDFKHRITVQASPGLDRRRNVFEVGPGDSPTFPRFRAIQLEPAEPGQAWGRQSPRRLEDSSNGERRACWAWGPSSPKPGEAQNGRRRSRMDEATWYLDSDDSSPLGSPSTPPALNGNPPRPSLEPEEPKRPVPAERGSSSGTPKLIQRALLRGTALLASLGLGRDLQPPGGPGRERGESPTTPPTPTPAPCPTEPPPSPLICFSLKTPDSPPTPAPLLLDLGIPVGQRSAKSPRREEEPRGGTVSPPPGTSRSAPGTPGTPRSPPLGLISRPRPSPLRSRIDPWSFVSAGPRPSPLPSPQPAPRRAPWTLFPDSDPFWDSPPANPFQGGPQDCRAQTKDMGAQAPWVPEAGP
MELK, sequence (Q14680 whole entry): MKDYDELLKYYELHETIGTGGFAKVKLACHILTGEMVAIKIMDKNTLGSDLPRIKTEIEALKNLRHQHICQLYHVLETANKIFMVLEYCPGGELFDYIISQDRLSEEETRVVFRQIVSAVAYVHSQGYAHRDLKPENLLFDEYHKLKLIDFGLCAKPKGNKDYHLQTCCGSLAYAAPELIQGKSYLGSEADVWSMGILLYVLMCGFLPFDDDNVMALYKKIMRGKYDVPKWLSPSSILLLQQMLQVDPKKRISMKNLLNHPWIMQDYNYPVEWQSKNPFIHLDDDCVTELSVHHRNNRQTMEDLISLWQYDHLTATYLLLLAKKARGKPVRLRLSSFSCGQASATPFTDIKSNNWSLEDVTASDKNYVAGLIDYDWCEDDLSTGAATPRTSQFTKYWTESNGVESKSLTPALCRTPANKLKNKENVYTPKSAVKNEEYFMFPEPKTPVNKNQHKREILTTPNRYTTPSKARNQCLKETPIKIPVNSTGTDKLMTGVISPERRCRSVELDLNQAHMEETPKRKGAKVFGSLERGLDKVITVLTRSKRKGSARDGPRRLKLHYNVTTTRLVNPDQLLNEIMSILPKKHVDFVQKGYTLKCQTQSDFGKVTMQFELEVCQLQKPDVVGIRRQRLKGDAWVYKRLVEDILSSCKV
CLK2, sequence (P49760 whole entry): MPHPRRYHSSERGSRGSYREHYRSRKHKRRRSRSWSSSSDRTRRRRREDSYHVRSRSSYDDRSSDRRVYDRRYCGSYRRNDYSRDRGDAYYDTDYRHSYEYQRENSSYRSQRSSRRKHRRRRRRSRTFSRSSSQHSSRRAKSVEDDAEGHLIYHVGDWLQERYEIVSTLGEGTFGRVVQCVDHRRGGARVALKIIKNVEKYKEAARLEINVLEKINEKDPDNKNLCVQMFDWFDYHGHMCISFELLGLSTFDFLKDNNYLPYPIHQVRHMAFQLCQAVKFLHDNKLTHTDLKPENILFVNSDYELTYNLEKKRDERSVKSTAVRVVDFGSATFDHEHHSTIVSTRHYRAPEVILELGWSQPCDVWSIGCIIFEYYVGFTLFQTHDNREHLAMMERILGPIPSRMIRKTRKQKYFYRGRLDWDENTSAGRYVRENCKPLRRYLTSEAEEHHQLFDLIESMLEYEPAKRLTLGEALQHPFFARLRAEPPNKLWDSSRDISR
SRPK1, sequence (Q96SB4 whole entry): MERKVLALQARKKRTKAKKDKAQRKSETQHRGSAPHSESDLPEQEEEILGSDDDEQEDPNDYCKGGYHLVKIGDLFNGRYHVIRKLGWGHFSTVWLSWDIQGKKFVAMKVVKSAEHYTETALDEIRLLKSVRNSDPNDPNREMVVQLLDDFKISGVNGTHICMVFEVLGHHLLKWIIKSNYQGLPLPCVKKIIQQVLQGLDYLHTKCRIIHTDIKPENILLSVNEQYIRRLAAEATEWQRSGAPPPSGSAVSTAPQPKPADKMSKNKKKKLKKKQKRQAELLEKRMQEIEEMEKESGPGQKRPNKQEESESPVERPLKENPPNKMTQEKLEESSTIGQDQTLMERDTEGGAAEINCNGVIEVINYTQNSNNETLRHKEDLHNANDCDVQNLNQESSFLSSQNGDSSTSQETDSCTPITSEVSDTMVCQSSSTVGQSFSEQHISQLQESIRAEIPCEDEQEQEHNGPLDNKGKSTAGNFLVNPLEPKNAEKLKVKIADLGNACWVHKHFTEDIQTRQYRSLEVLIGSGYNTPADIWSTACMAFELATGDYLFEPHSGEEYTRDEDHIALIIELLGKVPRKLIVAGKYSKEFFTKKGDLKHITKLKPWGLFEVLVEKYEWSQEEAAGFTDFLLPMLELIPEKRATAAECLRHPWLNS
IKKβ, sequence (O14920 whole entry): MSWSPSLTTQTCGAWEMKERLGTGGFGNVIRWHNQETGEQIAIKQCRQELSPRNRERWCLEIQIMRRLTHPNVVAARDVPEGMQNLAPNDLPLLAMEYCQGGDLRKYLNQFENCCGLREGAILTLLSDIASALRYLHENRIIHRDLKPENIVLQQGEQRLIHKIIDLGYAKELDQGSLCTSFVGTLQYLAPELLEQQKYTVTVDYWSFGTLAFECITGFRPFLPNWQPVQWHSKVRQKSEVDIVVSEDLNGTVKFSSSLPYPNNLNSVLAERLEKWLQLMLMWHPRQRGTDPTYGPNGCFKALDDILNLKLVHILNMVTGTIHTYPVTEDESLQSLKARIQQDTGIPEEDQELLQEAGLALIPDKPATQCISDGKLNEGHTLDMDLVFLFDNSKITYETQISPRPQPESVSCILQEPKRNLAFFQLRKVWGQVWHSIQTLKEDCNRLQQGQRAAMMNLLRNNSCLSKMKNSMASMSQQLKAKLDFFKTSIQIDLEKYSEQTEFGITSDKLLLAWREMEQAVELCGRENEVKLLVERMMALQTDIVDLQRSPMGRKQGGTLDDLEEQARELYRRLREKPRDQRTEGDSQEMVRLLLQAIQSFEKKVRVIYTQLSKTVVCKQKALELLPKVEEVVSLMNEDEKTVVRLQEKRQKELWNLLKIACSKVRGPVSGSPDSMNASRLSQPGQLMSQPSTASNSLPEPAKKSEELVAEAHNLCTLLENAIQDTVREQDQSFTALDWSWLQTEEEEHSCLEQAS
DYRK2, sequence (Q92630 whole entry): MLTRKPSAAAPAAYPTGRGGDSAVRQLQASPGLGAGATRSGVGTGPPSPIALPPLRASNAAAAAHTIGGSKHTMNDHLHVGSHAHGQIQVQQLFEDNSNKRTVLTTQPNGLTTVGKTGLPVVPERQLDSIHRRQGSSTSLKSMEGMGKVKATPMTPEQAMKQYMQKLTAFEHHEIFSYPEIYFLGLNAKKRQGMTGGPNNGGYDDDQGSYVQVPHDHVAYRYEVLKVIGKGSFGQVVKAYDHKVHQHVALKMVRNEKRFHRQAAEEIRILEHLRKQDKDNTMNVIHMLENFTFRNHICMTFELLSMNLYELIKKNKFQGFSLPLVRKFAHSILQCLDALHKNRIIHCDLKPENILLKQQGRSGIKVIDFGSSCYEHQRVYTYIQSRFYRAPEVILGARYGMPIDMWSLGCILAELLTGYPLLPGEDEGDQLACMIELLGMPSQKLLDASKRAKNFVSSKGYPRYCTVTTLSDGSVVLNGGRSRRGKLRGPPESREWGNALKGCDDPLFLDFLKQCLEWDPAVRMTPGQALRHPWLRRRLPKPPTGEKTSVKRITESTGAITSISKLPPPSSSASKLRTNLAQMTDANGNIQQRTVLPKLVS

SMILES: Cc1nc(Nc2cnn(C3CCNCC3)c2)nc2c1N(C)C(=O)c1cc3ccccc3cc1N2C [HTH-01-015]
- CLK2 activity, percentage of DMSO control [1]: 54 percentage
- DYRK2 activity, percentage of DMSO control [2]: 113 percentage
- IKKβ activity, percentage of DMSO control [3]: 81 percentage
- MELK activity, percentage of DMSO control [4]: 99 percentage
- MLK3 activity, percentage of DMSO control [5]: 94 percentage
- SRPK1 activity, percentage of DMSO control [6]: 103 percentage
- SYK activity, percentage of DMSO control [7]: 125 percentage
